Assay results from paper PMC3601661 (Steroids, 2012).
Like-named read-outs stand apart in the source and are kept apart here.

How the values were obtained:
[1] = tested on: MPA-induced mammary tumors; conditions: rats; cited from earlier work
[2] = tested on: ZBTB16 mRNA; experiment: Quantitative PCR of the P4 responsive gene ZBTB16 in T47D cells; assay type: cell-based, human; conditions: 100 μM, 24 h
[3] = Sulforhodamine B; assay type: cell-based; conditions: human
[4] = tested on: prolactin (PRL) mRNA; experiment: Quantitative PCR of decidualization gene PRL in HESC; assay type: cell-based, human; conditions: 100 μM, 48 h, with E2 and 8-Br-cAMP
[5] = target: T1, progesterone receptor (PR) (Homo sapiens, UniProt P06401); experiment: PRE-luciferase reporter assay in T47D cells; assay type: cell-based; conditions: for PRE-luciferase Fold increase (10μM): compound 10 μM, over DMSO; for dose-dependent activation of PRE-luciferase: five increasing doses; for compound-induced PRE-luciferase activity in the presence of RU486: with 1 μM RU486, T47D cells
T1 sequence (P06401 679-933 limits assumed): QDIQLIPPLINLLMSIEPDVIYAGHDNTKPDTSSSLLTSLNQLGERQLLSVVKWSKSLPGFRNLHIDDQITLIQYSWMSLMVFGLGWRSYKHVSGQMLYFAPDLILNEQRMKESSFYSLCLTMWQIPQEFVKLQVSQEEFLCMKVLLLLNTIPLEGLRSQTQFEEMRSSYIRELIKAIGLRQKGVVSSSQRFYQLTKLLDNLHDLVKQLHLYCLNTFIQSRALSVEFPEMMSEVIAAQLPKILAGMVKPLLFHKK

[6] = tested on: T47D cells; experiment: Sulforhodamine B; assay type: cell-based
[7] = target: T2, progesterone receptor ligand binding domain (PR-LBD-GST) (Homo sapiens, UniProt P06401); experiment: Progesterone receptor polarization competitive binding assay
T2 sequence (P06401 675-933): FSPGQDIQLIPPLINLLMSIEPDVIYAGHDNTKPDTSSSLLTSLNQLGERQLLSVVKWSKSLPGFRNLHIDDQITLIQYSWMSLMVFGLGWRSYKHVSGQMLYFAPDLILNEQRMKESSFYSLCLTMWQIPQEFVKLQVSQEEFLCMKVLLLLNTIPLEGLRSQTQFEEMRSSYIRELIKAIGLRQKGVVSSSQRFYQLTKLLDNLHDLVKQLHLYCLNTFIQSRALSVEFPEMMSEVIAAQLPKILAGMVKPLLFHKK

[8] = tested on: PRA and PRB protein; experiment: Western blot of PRA and PRB expression in T47D cells; assay type: cell-based, human; conditions: P4 1 μM, flavonoids 100 μM, 1.5 h or 16 h
[9] = tested on: ovarian cancer; conditions: kaempferol intake, human observational studies; cited from earlier work
[10] = target: T3, progesterone receptor (PR) (Homo sapiens, UniProt P06401); experiment: PRE-luciferase reporter assay in human endometrial stromal cells; assay type: cell-based; conditions: for dose-dependent activation of PRE-luciferase: HESC; for compound-induced PRE-luciferase in the presence of RU486: compound 20 μM with 1 μM RU486, HESC
T3 sequence (P06401 1-933): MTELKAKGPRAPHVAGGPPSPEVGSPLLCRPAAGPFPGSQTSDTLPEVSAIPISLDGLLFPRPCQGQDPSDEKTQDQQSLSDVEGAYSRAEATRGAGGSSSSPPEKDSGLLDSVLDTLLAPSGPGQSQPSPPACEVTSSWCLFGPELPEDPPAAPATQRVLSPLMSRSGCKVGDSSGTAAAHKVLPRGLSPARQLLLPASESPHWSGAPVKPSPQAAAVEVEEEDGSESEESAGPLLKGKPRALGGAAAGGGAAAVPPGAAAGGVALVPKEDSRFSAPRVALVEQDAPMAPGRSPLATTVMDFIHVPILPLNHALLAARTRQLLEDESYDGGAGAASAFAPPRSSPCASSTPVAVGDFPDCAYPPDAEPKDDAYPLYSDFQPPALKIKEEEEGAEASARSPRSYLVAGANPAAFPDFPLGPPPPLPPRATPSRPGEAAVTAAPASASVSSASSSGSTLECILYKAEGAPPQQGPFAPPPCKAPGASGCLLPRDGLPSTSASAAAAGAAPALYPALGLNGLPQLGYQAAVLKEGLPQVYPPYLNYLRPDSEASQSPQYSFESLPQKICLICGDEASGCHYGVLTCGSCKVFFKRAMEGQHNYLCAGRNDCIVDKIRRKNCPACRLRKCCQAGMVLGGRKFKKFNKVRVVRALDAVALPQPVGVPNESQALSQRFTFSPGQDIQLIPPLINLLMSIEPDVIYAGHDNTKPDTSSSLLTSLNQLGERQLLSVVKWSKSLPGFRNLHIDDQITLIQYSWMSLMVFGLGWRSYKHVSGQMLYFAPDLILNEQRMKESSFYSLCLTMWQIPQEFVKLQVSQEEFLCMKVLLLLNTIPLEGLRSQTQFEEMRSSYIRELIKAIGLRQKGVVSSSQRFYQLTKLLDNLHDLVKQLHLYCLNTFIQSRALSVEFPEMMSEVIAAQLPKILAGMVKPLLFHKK

[11] = target: T1, progesterone receptor (PR); experiment: PRE-luciferase in T47D cells in combination with P4; assay type: cell-based; conditions: 10 μM compound plus 100 nM P4, 24 h
[12] = tested on: cannabinoid receptor 1 (CNR1) mRNA; experiment: Quantitative PCR of decidualization gene CNR1 in HESC; assay type: cell-based, human; conditions: 100 μM, 48 h, with E2 and 8-Br-cAMP

| Compound | PRE-luciferase Fold increase (10μM) ([5]; T47D cells) [fold] | IC50 [7] [µM] | dose-dependent activation of PRE-luciferase ([5]; T47D cells) | compound-induced PRE-luciferase activity in the presence of RU486 [5] | induction of ZBTB16 mRNA [2] | induction of PRL expression [4] | CC50 at 24 h ([3]; T47D cells) [µM] | downregulation of PRA and PRB protein expression [8] | also measured |
| --- | --- | --- | --- | --- | --- | --- | --- | --- | --- |
| O=c1cc(-c2ccc(O)cc2)oc2cc(O)cc(O)c12 [Apigenin, apigenin] |  |  |  |  | did not induce | induced PRL expression |  |  | development of MPA-induced mammary tumors [1]: prevents the development; CC50 at 24 h [3]: > 20 µM |
| O=c1c(-c2ccc(O)cc2)coc2cc(O)ccc12 [Daidzein, daidzein] | 1.0 ± 0.4 | > 250 |  |  |  |  | > 20 |  |  |
| O=c1c(-c2ccc(O)cc2)coc2cc(O)cc(O)c12 [Genistein] | 2.2 ± 1.1 | > 250 |  |  |  |  |  |  | CC50 at 24 h [3]: > 20 µM |
| O=c1c(O)c(-c2ccc(O)cc2)oc2cc(O)cc(O)c12 [Kaempferol, kaempferol] | 5.5 ± 1.8 | 1.5 ± 0.4 | dose-dependently activated | significantly abrogate | significantly induced | induced PRL expression | > 20 | not observed | decrease of ovarian cancer incidence [9]: 40%; dose-dependent activation of PRE-luciferase [10]: dose-dependently activated; compound-induced PRE-luciferase in the presence of RU486 [10]: significantly inhibited; concentration of highest PRE-luciferase activity from dose response curves ([5]; T47D cells): 7.5 µM; concentration above which PRE-luciferase activity started to decrease ([5]; likely due to cell death): > 10 µM; downregulation of P4-induced PRE-luciferase [11]: significantly downregulated |
| CC(=O)O[C@]1(C(C)=O)CC[C@H]2[C@@H]3C[C@H](C)C4=CC(=O)CC[C@]4(C)[C@H]3CC[C@@]21C [MPA, medroxyprogesterone acetate, reference compound] |  |  |  |  |  |  |  |  | dose-dependent activation of PRE-luciferase [10]: dose-dependently activated; compound-induced PRE-luciferase in the presence of RU486 [10]: significantly inhibited; PRE-luciferase activity compared with P4 ([5]; T47D cells, data not shown): comparable activity |

Now from value to compound, other results behind:

| PRE-luciferase Fold increase (10μM) ([5]; T47D cells) [fold] | IC50 [7] [µM] | dose-dependent activation of PRE-luciferase ([5]; T47D cells) | compound-induced PRE-luciferase activity in the presence of RU486 [5] | Compound | induction of ZBTB16 mRNA [2] | induction of PRL expression [4] | CC50 at 24 h ([3]; T47D cells) [µM] | downregulation of PRA and PRB protein expression [8] | also measured |
| --- | --- | --- | --- | --- | --- | --- | --- | --- | --- |
| 1.0 ± 0.1 |  |  |  | COc1ccc(-c2coc3cc(O)cc(O)c3c2=O)cc1 [Biochanin A, biochanin A] |  |  |  |  | CC50 [6]: > 20 µM; IC50 ([7]; read-out: PR Binding IC50, pure compounds, purified PR): > 250 µM |
| 1.5 ± 0.6 | > 250 |  |  | COc1ccc(-c2coc3cc(O)ccc3c2=O)cc1 [Formononetin, formononetin] |  |  | > 20 |  |  |
| 1.9± 0.4 | 6.9 ± 1.8 | dose-dependently activated | significantly abrogate | O=C1C[C@@H](c2ccc(O)cc2)Oc2cc(O)cc(O)c21 [Naringenin, naringenin] | did not induce | induced PRL expression | > 20 | not observed | PRE-luciferase activation versus solvent control ([5]; 20 μM, T47D cells): reached significance; induction of CNR1 expression [12]: did not induce CNR1 expression |
|  |  | dose-dependently activated | significantly abrogate | CC(=O)[C@H]1CC[C@H]2[C@@H]3CCC4=CC(=O)CC[C@]4(C)[C@H]3CC[C@]12C [Progesterone, reference compound] |  |  |  | downregulation of PRB and more noticeably PRA |  |
